Data taken from patent US12544431B2, “Peptides for the treatment of cancer and/or metastasis” (BCN PEPTIDES, S.A., priority 2019, dated 2026).
“Also recorded” adds a separate entry of the source. Marks after values point to notes of the source that are not given here. Where a SMILES comes first, the peptide text is derived from it. [ ]: non-standard residue; d: D form. Phe(2,4,6-Me3) = Cc1cc(C)c(C[C@H](N)C(=O)O)c(C)c1; pGlu = O=C1CC[C@@H](C(=O)O)N1

Experiments:
[1] = In vitro stability, half-life in human plasma; type: in vitro ADME; conditions: 90% human plasma, 37° C., RP-HPLC; read-out: t½ (hours) in human plasma (converted)
Description: The peptides and peptide dimer synthesized and prepared in accordance with Example 1 were dissolved in water at a concentration of 6 mg/mL and warmed up to 37° C.
Human plasma was obtained as a lyophilized solid (K3 EDTA Plasma, BBI Solutions, code S112-1), reconstituted with sterile 0.9% sodium chloride solution and stored at −20° C. Human plasma was thawed and incubated at 37° C. before use.
The peptides and peptide dimer were incubated in 90% human plasma at 37° C. for different times and then precipitated with two volume equivalents of methanol. The samples were cooled in an acetone-carbon dioxide bath for a few seconds and centrifuged for 12 minutes at 4° C. at approximately 10,000 rpm. The supernatant was filtered with a 0.45 μm PVDF filter and analyzed in triplicate by RP-HPLC using an isocratic method (Eluent A=0.1% TFA in water; Eluent B=0.07% TFA in ACN, Column=Kromasil C8, 100 Å, 5 μm, 250×4.6 mm, Flow=1 mL/min, Wavelength: 220 nm, Injection volume=20 μL, Temperature=60° C.). The disappearance of the compound was determined in relation to the area of the initial time to calculate its half-life.

[2] = tested on: RH30 rhabdomyosarcoma cells; test: Matrigel-coated transwell invasion assay, RH30 cells; type: cell-based; conditions: for % Invasiveness RH30: % invasive cells vs non-treated control
Description: (§1) 10^5 RH30 or RD cells were plated in the upper chamber of a Matrigel-coated transwell (Corning) in 0.1 mL medium without FBS. Cells were previously incubated with different concentrations (0 nM, 100 nM, 200 nM, 500 nM and 1000 nM) of the peptides and peptide dimer for 48 hours, being also present in the medium during the cell invasion assay. In the lower chamber, 0.6 mL of medium with FBS was added. Cells were incubated at 37° ° C. for 24 hours.
(§2) After that, cells were fixed with 4% paraformaldehyde (Sigma) for 10 minutes, followed by washing with PBS. After removal of the Matrigel and remaining cells from the upper face of the membrane with a cotton swab, the cells present on the lower face were stained with a Hoechst dilution (Sigma) and were counted (5 fields for each well) with an inverted fluorescence microscope Nikon with a 10× objective. All experiments were made in triplicate. In Table 6 the % Invasiveness represents the mean percentage of invasive cells with respect to their controls.

[3] = tested on: RD rhabdomyosarcoma cells; test: Matrigel-coated transwell invasion assay, RD cells; type: cell-based; conditions: % invasive cells vs non-treated control
Description: as §1, §2

[4] = tested on: CHLA-90 neuroblastoma cells; test: Transwell invasion assay, CHLA-90 cells; type: cell-based
Description: as §1, §2
(§3) The transwell assay with CHLA-90 and BE(2)-C cell lines was done following the same conditions detailed for determining the % of invasiveness in rhabdomyosarcoma cells.
(§4) The transwell assay with neuroblastoma cell lines (CHLA-90, BE(2)-C and SK—N-BE(2)-C)) and breast cancer cell lines (MDA-MB-231 and MDA-MB-468) was performed at the same conditions detailed for determining the % of invasiveness in rhabdomyosarcoma cells.

[5] = tested on: BE(2)-C neuroblastoma cells; test: Transwell invasion assay, BE(2)-C cells; type: cell-based
Description: as §1, §2, §3, §4

[6] = tested on: SK-N-BE(2)-C neuroblastoma cells; test: Transwell invasion assay, SK-N-BE(2)-C cells; type: cell-based
Description: as §1, §2, §4

[7] = tested on: MDA-MB-231 breast cancer cells; test: Transwell invasion assay, MDA-MB-231 cells; type: cell-based
Description: as §1, §2, §4

[8] = tested on: MDA-MB-468 breast cancer cells; test: Transwell invasion assay, MDA-MB-468 cells; type: cell-based
Description: as §1, §2, §4

[9] = tested on: RD rhabdomyosarcoma cells; test: Rhabdomyosarcoma metastatic mice model (RD cells i.v. in tail vein); type: in vivo, SCID/Beige mice; conditions: for event-free survival vs vehicle group (in words): 27-week study; for Absence of metastases, number of mice / Absence of metastases, percentage of mice / Presence of metastases (%), percentage of mice / Presence of metastases, number of mice: 27 weeks; for body weight, treated vs vehicle-treated mice (in words): along the 27-week study
Description: SCID/Beige female mice aged of 5 weeks were administered subcutaneously (s.c.) at day −1 with the first dose of treatment i.e. the vehicle (PBS, Phosphate buffered saline) or the peptides. On day 0, mice were injected intravenously (i.v.) in the tail vein with 2×10^6 RD rhabdomyosarcoma cells.
Body weight was evaluated twice per week for 27 weeks. Overall survival and event-free survival were determined. At necropsy, the total number of metastases were quantified and the number of metastases per mice and their localization were also reported.

[10] = tested on: BE(2)-C neuroblastoma cells; test: Neuroblastoma metastatic mice model (BE(2)-C cells i.v. in tail vein); type: in vivo, SCID/Beige mice; conditions: for Absence of metastases, number of mice / Absence of metastases, percentage of mice / Presence of metastases (%), percentage of mice / Presence of metastases, number of mice: 13 weeks; for event-free survival, percentage of mice / event-free survival, number of mice: 13-week study; for event-free survival, number of mice: of 9 mice
Description: SCID/Beige female mice aged 5 weeks were administered subcutaneously (s.c.) at day −1 with the first dose of treatment, this is the vehicle (PBS) or the peptide SEQ ID NO: 7-NH2 at doses of 1 mg/kg and 2 mg/kg. On day 0, mice were injected intravenously (i.v.) in the tail vein with 2×10^5 BE(2)-C neuroblastoma cells. Afterwards, mice were treated s.c. three times per week (every 2-3 days) for 13 weeks with vehicle PBS (n=8) and SEQ ID NO: 7—NH2 1 mg/kg (n=9) and 2 mg/kg (n=9).

[11] = 0.5 mg/kg s.c. three times per week
[12] = 2 mg/kg s.c. three times per week
[13] = 1 mg/kg s.c. three times per week

CSCC[C@H](NC(=O)[C@H](CO)NC(=O)[C@H](CC(N)=O)NC(=O)[C@H](CO)NC(=O)[C@H](CO)NC(=O)[C@H](CC(=O)O)NC(=O)[C@H](CCCNC(=N)N)NC(=O)[C@H](CCCCN)NC(=O)[C@@H]1CCC(=O)N1)C(=O)N[C@@H](CC(=O)O)C(=O)N[C@@H](CC(C)C)C(=O)N1CCC[C@H]1C(=O)N[C@@H](CCC(=O)O)C(=O)N[C@@H](Cc1c(C)cc(C)cc1C)C(=O)N[C@@H](CCCCN)C(N)=O [SEQ ID NO: 7-NH2, Pyr-Lys-Arg-Asp-Ser-Ser-Asn-Ser-Met-Asp-Leu-Pro-Glu-Msa-Lys-NH2] ([pGlu]KRDSSNSMDLPE[Phe(2,4,6-Me3)]K-NH2)
half-life at 0.6 mg/mL [1]: 40.5 h | % Invasiveness RH30 ([2]; 100 nM peptide): 121.38% | % Invasiveness RH30 ([2]; 200 nM peptide): 77.38% | % Invasiveness RH30 ([2]; 500 nM peptide): 65.59% | % Invasiveness RH30 ([2]; 1000 nM peptide): 63.23% | effect on % invasiveness of RH30 cell line (in words) ([2]; concentration not stated (100-1000 nM tested)): diminishing % invasiveness without reaching significance | % Invasiveness RD ([3]; 100 nM peptide): 30.82* % | % Invasiveness RD ([3]; 100 nM peptide, listed as SEQ ID NO: 7—NH2): below 50% | % Invasiveness RD ([3]; 200 nM peptide): 22.94* % | % Invasiveness RD ([3]; 500 nM peptide): 17.60* % | % Invasiveness RD ([3]; 1000 nM peptide): 19.68* % | % Invasiveness CHLA-90 ([4]; 100 nM peptide): 94.31% | % Invasiveness CHLA-90 ([4]; 200 nM peptide): 52.37% | % Invasiveness CHLA-90 ([4]; 500 nM peptide): 38.94% | % Invasiveness CHLA-90 ([4]; 1000 nM peptide): 20.37* % | effect on CHLA-90 cell invasiveness (in words) ([4]; concentration not given): significant reduction in cell invasiveness | % Invasiveness BE(2)-C ([5]; 100 nM peptide): 95.15% | % Invasiveness BE(2)-C ([5]; 200 nM peptide): 60.70* % | % Invasiveness BE(2)-C ([5]; 500 nM peptide): 56.72* % | % Invasiveness BE(2)-C ([5]; 1000 nM peptide): 33.21* % | effect on BE(2)-C cell invasiveness (in words) ([5]; concentration not given): significant reduction in cell invasiveness | % Invasiveness SK-N-BE(2)-C ([6]; 100 nM peptide): 84.35% | % Invasiveness SK-N-BE(2)-C ([6]; 200 nM peptide): 91.84% | % Invasiveness SK-N-BE(2)-C ([6]; 500 nM peptide): 73.31* % | % Invasiveness SK-N-BE(2)-C ([6]; 500 nM peptide, listed as SEQ ID NO: 7—NH2): efficacious in inhibiting invasiveness; also recorded: significant reduction | % Invasiveness SK-N-BE(2)-C ([6]; 1000 nM peptide): 52.70* % | % Invasiveness MDA-MB-231 ([7]; 100 nM peptide): 111.82% | % Invasiveness MDA-MB-231 ([7]; 200 nM peptide): 109.71% | % Invasiveness MDA-MB-231 ([7]; 500 nM peptide): 99.97% | % Invasiveness MDA-MB-231 ([7]; 1000 nM peptide (highest treatment dose)): 53.69% | % Invasiveness MDA-MB-231 ([7]; 1000 nM peptide (highest treatment dose), listed as SEQ ID NO: 7—NH2): moderate reduction | % Invasiveness MDA-MB-468 ([8]; 100 nM peptide): 96.71% | % Invasiveness MDA-MB-468 ([8]; 200 nM peptide): 57.65% | % Invasiveness MDA-MB-468 ([8]; 500 nM peptide): 54.53* % | % Invasiveness MDA-MB-468 ([8]; 1000 nM peptide): 48.39* % | effect on MDA-MB-468 invasiveness (in words) ([8]; under treatment, concentration not given): clear reduction of invasiveness | event-free survival vs vehicle group (in words) ([9]; 0.5 mg/kg (lower dose)): did not show statistically significant difference; also recorded: did not show a significant effect | Absence of metastases, number of mice [9, 11]: 1 | Absence of metastases, percentage of mice [9, 11]: 17% | Presence of metastases (%), percentage of mice [9, 11]: 83% | Presence of metastases, number of mice [9, 11]: 5 | body weight, treated vs vehicle-treated mice (in words) ([9]; 0.5 mg/kg): vehicle-treated mice showed a statistically significant lower body weight | reduction in metastases formation ([9]; 0.5 mg/kg, vs PBS-treated mice): ~15% | number of metastases per mouse vs vehicle (in words) ([9]; 2 mg/kg (higher dose), at necropsy): statistically reduced the formation of metastases per mouse; also recorded: efficacious in the reduction of the number of metastases | Absence of metastases, number of mice [9, 12]: 5 | Absence of metastases, percentage of mice [9, 12]: 71% | Presence of metastases (%), percentage of mice [9, 12]: 29% | Presence of metastases, number of mice [9, 12]: 2 | event-free survival vs vehicle group (in words) ([9]; 2 mg/kg, Log-rank): significant difference | body weight, treated vs vehicle-treated mice (in words) ([9]; 2 mg/kg): vehicle-treated mice showed a statistically significant lower body weight | Absence of metastases, number of mice [10, 13]: 2 | Absence of metastases, percentage of mice [10, 13]: 22% | Presence of metastases (%), percentage of mice [10, 13]: 78% | Presence of metastases, number of mice [10, 13]: 7 | event-free survival, percentage of mice ([10]; 1 mg/kg): 22% | event-free survival, number of mice ([10]; 1 mg/kg): 2 | Absence of metastases, number of mice [10, 12]: 5 | Absence of metastases, percentage of mice [10, 12]: 56% | Presence of metastases (%), percentage of mice [10, 12]: 44% | Presence of metastases, number of mice [10, 12]: 4 | event-free survival, percentage of mice ([10]; 2 mg/kg): 56% | event-free survival, number of mice ([10]; 2 mg/kg): 5
